{"source": "paper PMC3664642", "about": "“A Peptide against Soluble Guanylyl Cyclase α1: A New Approach to Treating Prostate Cancer” (PLoS ONE, 2013)", "key": {"LNCaP cells": {"system": "LNCaP cells", "test": "Proliferation of LNCaP cells without or with R1881 (MTT)", "type": "cell-based", "details": "2% serum without or with 1 nM R1881; 50 µM peptide; day 6; Fig. 3A; averages of three independent experiments; P<0.03 vs Vehicle", "method": "(§1) For proliferation, cells were grown in medium containing 2% FBS extracted with dextran-coated charcoal (DCC). 48 hours later, ethanol or 1 nM R1881 was added to the cells followed by peptide treatment. The MTT assay (Sigma) was used as before to determine cell number. For apoptosis, 5000 cells were seeded in 96-well plates and treated with Vehicle (DMSO), Peptide A-8R (25 µM), Etoposide (50 µM) (Sigma) at different time points. The Caspase (3/7) activity was measured using Apo-ONE Homogeneous Caspase-3/7 assay kit (Promega). PARP cleavage was also used to measure apoptosis, and is described below.\nVehicle or different concentrations of Peptide A-8R or C-8R, as shown, was added to (A) hormone-dependent LNCaP cells grown in 2% serum without or with 1 nM R1881, (C) castration-resistant C81 or CWR-22Rv1 cells, or (E) sGCα1-deficient PC-3 or Cos cells. Cell number was measured after various days of incubation. Data points represent averages of three independent experiments plus standard deviations. Asterisks indicate statistical significance (P<0.03) of Peptide A activity, relative to Vehicle. Western blotting was used to monitor expression of endogenous sGCα1 in (B) C81 and CWR-22Rv1 cells, treated without or with 1 nM R1881, or (E) PC-3 and Cos cells, as compared to LNCaP cells. Note that β-actin was used to control for protein loading."}, "C81 cells [1]": {"system": "C81 cells", "test": "Proliferation/cytotoxicity, castration-resistant C81 cells (MTT)", "type": "cell-based", "details": "different concentrations; Fig. 3C; averages of three independent experiments; P<0.03 vs Vehicle", "method": "(§2) LNCaP, C81, PC-3 and Cos cells were grown as previously described. CWR-22Rv1 cells were cultured in RMPI-1640 medium with 10% FBS and 50 µg/ml Gentamicin (Gibco). Control siRNA, sGCα1 siRNA and AKT siRNA (Dharmacon) at 50 nM final concentration was transfected into cells using Lipofectamine siMAX (Invitrogen).\nas §1\n(§3) Vehicle or different concentrations of Peptide A-8R or C-8R, as shown, was added to (A) hormone-dependent LNCaP cells grown in 2% serum without or with 1 nM R1881, (C) castration-resistant C81 or CWR-22Rv1 cells, or (E) sGCα1-deficient PC-3 or Cos cells. Cell number was measured after various days of incubation. Data points represent averages of three independent experiments plus standard deviations. […]"}, "PC-3 cells": {"system": "PC-3 cells", "test": "Proliferation/cytotoxicity, sGCα1-deficient PC-3 cells (MTT)", "type": "cell-based", "details": "different concentrations, Fig. 3E", "method": "as §2, §1, §3"}, "sGCα1-sGCβ1": {"system": "sGCα1-sGCβ1", "test": "sGCα1-sGCβ1 co-immunoprecipitation, LNCaP extracts", "type": "binding", "details": "LNCaP whole-cell extracts; Fig. S1A", "method": "Immunoprecipitation (IP) in LNCaP cells was performed as described previously. Whole-cell extracts from LNCaP cells were subjected to IP using Protein A/G plus Agarose (Santa Cruz). IP antibodies were against sGCα1 (Cayman Chemical), sGCβ1 (Cayman Chemical), or rabbit IgG (Santa Cruz) as control. For Biotin pulldown, 5 µg Biotin-labeled Peptide A was incubated with NeutrAvidin Agarose Resin (Thermo Scientific) for 3 hours at 4°C, after which whole-cell extract from LNCaP cells was added and incubated overnight at 4°C. Resin was washed and eluted with SDS Sample buffer, followed by SDS-PAGE gel electrophoresis.\n(A) Whole-cell extracts from LNCaP cells treated with Vehicle, Peptide A-8R, or C-8R were subjected to IP using an anti-sGCα1 or anti-sGCβ1 antibody and then probed by Western blotting for sGCα1 (Upper) or sGCβ1 (Lower). Input represents amount of sGCα1 or sGCβ1 found in extracts. (B) LNCaP cells grown in the absence or presence of 1 nM R1881 were treated with Vehicle, 20 µM Peptide A-8R, 20 µM C-8R, or 8-Br-cGMP and monitored for cGMP levels using the cGMP E1A kit (Enzo Life Sciences). (C) LNCaP cells grown in the absence or presence of 8-Br-cGMP were treated with Vehicle, Peptide A-8R, or ODQ and monitored for cell density using the MTT assay. (D) LNCaP cells were treated with Vehicle or different concentrations of Peptide A-8R and C-PTIO and monitored for cell density. […]"}, "[2]": {"system": "ROS generation in PC-3 cells", "test": "ROS generation, PC-3 cells", "type": "cell-based", "details": "0–30 min; Fig. S5A", "method": "Intracellular ROS levels were evaluated using the fluorescent probe 5-(and-6)-chloromethyl-2′,7′-dichlorodihydrofluorescein diacetate (CM-H2DCFDA) (Invitrogen). After treatments with Peptide A-8R, C81 cells were loaded with 20 µM CM-H2DCFDA and incubated at 37°C for 30 min in the dark. Cells were then washed with PBS and fluorescence was measured at the excitation and emission wavelengths of 490 and 535 nm, respectively, using a multi-well fluorescence plate reader. For NAC (N-acetyl cysteine) (Sigma) rescue experiment, cells were pretreated with 1 or 5 mM NAC for 2 hours before adding Peptide A-8R.\nSupplementary file pone.0064189.s005.tif: Figure S5 ROS generation is not induced by Peptide A-8R in PC-3 cells and Peptide C-8R in LNCaP cells. (A) PC-3 cells were treated with Vehicle or different concentrations of Peptide A-8R or Peptide C-8R, as shown, or (B) LNCaP cells were treated with Vehicle or different concentrations of Peptide A-8R or Peptide C-8R, or H2O2 and monitored for ROS generation after 0–30 (A) or 30 (B) min. (C) LNCaP cells were treated with Vehicle, Peptide C-8R (10 µM), Peptide A-8R (10 µM), or Etoposide (100 µM) for 0–8 hrs and subjected to a Caspase assay to measure apoptosis. Bar graphs represent averages of three independent experiments plus standard deviations. (C) All activities are relative to the first condition, and this activity was set to either 1. […]"}, "[3]": {"system": "Caspase 3/7 activity in Cos cells", "test": "Caspase 3/7 assay, Cos cells", "type": "cell-based, African green monkey", "details": "10 µM; 0–24 hrs; Fig. 5C", "method": "as §1\nFigure 5 Peptide A-8R induces apoptosis of prostate cancer cells. (A) LNCaP, (B) PC-3, or (C) Cos cells were treated with Vehicle, Peptide A-8R (10 µM), or Etoposide (20 µM) for 0–24 hrs and subjected to a Caspase assay to measure apoptosis. Bar graphs represent averages of three independent experiments plus standard deviations. All activities are relative to the first condition, and this activity was set to 1. Asterisks indicate statistical significance (P<0.005). (D) LNCaP cells were treated with Vehicle, Peptide C-8R, Peptide A-8R, or Etoposide (each drug at 50 µM) for 8 hrs and monitored for apoptosis by measuring PARP cleavage using Western blotting. Note that β-actin was used to control for protein loading."}, "C81 cells [4]": {"system": "C81 cells", "test": "DAPI DNA staining, C81 cells", "type": "cell-based", "details": "50 µM Peptide A-8R, 1 hr, with or without 5 mM NAC, Fig. S6", "method": "C81 cells were first treated with or without 5 mM NAC for 2 hrs and then Vehicle or different concentrations of Peptide A-8R, as shown, for 1 hr and stained with DAPI. Phase contrast images are shown. (TIF) Click here for additional data file."}}, "note": "“Also recorded” adds a separate entry of the source. Where no end group is shown, it is not given here.", "data": [{"substance": "Ac-TFCKAFPFHIIRRRRRRRR [Peptide A-8R]", "values": [{"measurement": "cytotoxic activity with or without androgen, LNCaP", "setting": "LNCaP cells", "value": "same potent cytotoxic activity with or without androgen, causing all cells to perish by day 6 when treated with 50 µM peptide"}, {"measurement": "suppression of growth of C81 cells", "setting": "C81 cells [1]", "value": "very effective at suppressing the growth of C81 cells (Fig. 3C), matching the effect on hormone-dependent LNCaP cells"}, {"measurement": "effect on PC-3 cells", "setting": "PC-3 cells", "value": "little to no effect"}, {"measurement": "effect on sGCα1-sGCβ1 co-IP (heterodimerization)", "setting": "sGCα1-sGCβ1", "value": "had no effect on either sGCα1 co-IP with sGCβ1 or sGCβ1 co-IP with sGCα1; also recorded: does not interfere with sGCα1-sGCβ1 dimerization"}, {"measurement": "ROS generation, PC-3 cells", "setting": "[2]", "value": "do not respond; also recorded: not induced"}, {"measurement": "induction of apoptosis, Cos", "setting": "[3]", "value": "failed to induce apoptosis"}, {"measurement": "DAPI staining / effect on nuclei and DNA", "setting": "C81 cells [4]", "value": "kills the cells and disrupts their nuclei and DNA such that DAPI staining yields no signal"}]}]}
